# Measured values taken from patent publication US12138254B2, “Chronic nightly dosing of lasmiditan for migraine prevention” (Eli Lilly and Company, priority 2018, dated 2024).
# Entries after “also recorded” stand apart in the source; their conditions may differ. Read-outs that look alike come from different tables or passages of the source.
# Tests used:
# patients with migraine [1] = settings: cited from earlier work; for pain freedom (primary) and MBS freedom (key secondary) at 2 hours vs placebo: Phase 3 trials, all doses (50, 100, 200 mg); for proportion of patients headache pain-free / proportion of patients most bothersome symptom (MBS)-free: lasmiditan 200 mg, 2 hours post-first dose, p<0.001
# patients with migraine [2] = experiment: GLADIATOR open-label Phase 3 study, long-term intermittent lasmiditan; MIDAS interim analysis; assay type: in vivo, human; settings: for change in MIDAS migraine disability, headache days and headache pain/severity over time: lasmiditan 100 mg or 200 mg, up to 12 months
# Method: The placebo-controlled Phase 3 studies SAMURAI (NCT02439320) and SPARTAN (NCT02605174) evaluated lasmiditan 50 mg [SPARTAN only], 100 mg and 200 mg. […] GLADIATOR (NCT02565186) is a prospective randomized open-label Phase 3 study to evaluate long-term intermittent use of lasmiditan (100 mg or 200 mg) for acute treatment of migraine. An interim analysis of the effects of lasmiditan on migraine disability assessed with the MIDAS scale in GLADIATOR is described below, and has provided surprising and unexpected evidence of persistent beneficial effects in migraine patients.
# Patients who completed SAMURAI or SPARTAN were offered participation in GLADIATOR with randomization to lasmiditan 100 mg or lasmiditan 200 mg which represents an uncontrolled, open-label study. […] This interim analysis includes patients with MIDAS score data at baseline of GLADIATOR and post-baseline assessments. The analysis presented is based on the MIDAS questionnaire administered at baseline and at months 3, 6, 9 and 12. An additional analysis was also conducted in the subgroup of patients who completed 12 months. Changes were modelled using a mixed model repeated measures analysis MIDAS measures lost time due to migraine in days over 3 months. Domains included are activity limitations at work, household work or family, social and leisure activity.
# Key inclusion criteria were patients who were eligible for SAMURAI or SPARTAN and had at least moderate migraine disability (MIDAS score ≥11). Patients were randomized 1:1 for acute treatment of migraine with either lasmiditan 100 mg for up to 12 months, or lasmiditan 200 mg for up to 12 months. Patients used lasmiditan as the first treatment for each new migraine attack (≤4 hours of Migraine pain onset). […] Assessments of safety and efficacy were conducted, including MIDAS questionnaires at baseline and months 3, 6, 9 and 12. MIDAS Questionnaire (See for example Stewart et al., Neurology 1999; 53:988-94, Stewart et al., Neurology 2001; 56: S20-8) The sum of Questions 1-5 below represents the Total MIDAS score. • 1. […]
# [3] = tested on: dural plasma protein extravasation; experiment: Trigeminal stimulation-induced dural plasma protein extravasation (PPE) in rats; assay type: in vivo, Sprague-Dawley rats
# Text: Migraine is a painful condition thought to involve neurogenic inflammation of the dural membrane and activation of the trigeminal nervous system. The 5-HT1F receptor is widely expressed in the CNS and peripheral nerves, including the trigeminal ganglia, dorsal root ganglia and trigeminal nucleus caudalis. Plasma protein extravasation (PPE), one component of neurogenic inflammation, can be induced in the dura of rats by electrically stimulating the trigeminal ganglion. Considering the role of the trigeminal nerve in the physiology of migraine, this study is useful to characterize the ability of lasmiditan-hemisuccinate to block plasma protein extravasation in the dura of rats following electrical stimulation of the trigeminal ganglion.
# To investigate the potential of lasmiditan to modify the dysfunction in the target tissue, the duration of effect following a single oral dose of lasmiditan-hemisuccinate was also determined. Electrical stimulation of the trigeminal ganglion of rats and guinea pigs can be used to induce neurogenic inflammation in the meninges (dura). Briefly, unilateral electrical stimulation of either the left or right trigeminal ganglion using electrodes implanted stereotaxically is used to induce ipsilateral neurogenic inflammation and the increased extravasation of plasma proteins.
# Lasmiditan-hemisuccinate is dissolved in sterile water. All doses of lasmiditan are reported as free base equivalent doses, accounting for the weight of the salt. Envigo Sprague-Dawley, Sprague-Dawley male rats (250-350 grams, n=4/group) are fasted overnight prior to dosing. The animals are orally gavaged (2 mL/kg dose volume) with test compound or vehicle one hour prior to stimulation time and returned to their cages with only water available. Approximately 50 minutes post-dosing, the rats are anesthetized with Nembutal (65 mg/kg, ip.) and implanted with stainless steel stimulating electrodes (Rhodes Medical Systems, Inc.) to a depth of 9.2 mm. from the dura. The femoral vein is exposed and fluorescein isothiocyanate-labeled bovine serum albumin (FITC-BSA) (20 mg/kg, iv.), is injected into the femoral vein 2 minutes prior to stimulation. The FITC-BSA functions as a marker for protein extravasation. The left trigeminal ganglion is stimulated for 5 minutes at a current intensity of 1.0 mA (5 Hz, 5 msec pulse duration) with a Model S48 Grass Instrument Stimulator with PSIU6 photoelectric isolation unit (Grass-Telefactor). Five minutes following stimulation, a blood sample is collected by cardiac puncture and the rats are sacrificed by exsanguination with 40 ml of saline. One milliliter of blood is collected and placed in a 1.5 ml EDTA coated tube (Fisher Cat. #540734) on ice. Plasma is separated via centrifugation at 10,000 rpm (941 g) for thirty minutes at 4° C. The top of the skull is removed to collect the brain and dural membranes. The brain and plasma samples are frozen at −80° C. until thawed for compound quantification. The membrane samples are removed from both hemispheres, rinsed with water, and spread flat on microscope slides. The slides are dried for 15 minutes on a slide warmer, then the tissues are cover-slipped with a 70% glycerol/water solution. A fluorescence microscope (Zeiss) equipped with a grating monochromator and a spectrophotometer is used to quantify the amount of FITC-BSA dye in each dural sample. The extravasation induced by electrical stimulation of the trigeminal ganglion is an ipsilateral effect (i.e. occurs only on the side of the dura in which the trigeminal ganglion was stimulated). This allows the other (unstimulated) half of the dura to be used as the control. The ratio of extravasation in the dura from the stimulated side versus the unstimulated side is calculated and reported as the extravasation ratio for each animal. The mean extravasation ratio and standard error of the mean (SEM) are calculated for each treatment group. Controls yield a ratio of approximately 1.8. […]
smiles,measurement,setting,value
"CN1CCC(C(=O)c2cccc(NC(=O)c3c(F)cc(F)cc3F)n2)CC1 [Lasmiditan, 2,4,6-trifluoro-N-[6-(1-methyl-piperidin-4-ylcarbonyl)-pyridin-2-yl]-benzamide]",most frequently reported / most common TEAEs,"patients with migraine [1]; Phase 3 studies, b6: ≥2% and greater than placebo after the first dose","dizziness, paresthesia, somnolence, fatigue, and nausea"
same,severity of TEAEs,patients with migraine [1]; Phase 3 studies,mild or moderate
same,pain freedom (primary) and MBS freedom (key secondary) at 2 hours vs placebo,patients with migraine [1],statistically significant superiority over placebo
same,pain freedom (primary) and MBS freedom (key secondary) at 2 hours vs placebo,patients with migraine [1]; listed as lasmiditan,significantly higher rates
same,proportion of patients headache pain-free,"patients with migraine [1]; SAMURAI, placebo 15.3%",32.2%
same,proportion of patients most bothersome symptom (MBS)-free,"patients with migraine [1]; SAMURAI, placebo 29.5%",40.7%
same,proportion of patients headache pain-free,"patients with migraine [1]; SPARTAN, placebo 21.3%",38.8%
same,proportion of patients most bothersome symptom (MBS)-free,"patients with migraine [1]; SPARTAN, placebo 33.5%",48.7%
same,headache pain-free and MBS-free at 2 hours compared to placebo,"patients with migraine [1]; lasmiditan 100 mg, 50 mg dose groups",significance was also noted
same,"difference between lasmiditan 100 mg and 200 mg doses, any outcome",patients with migraine [2]; GLADIATOR MIDAS outcomes,no significant differences
same,"change in MIDAS migraine disability, headache days and headache pain/severity over time",patients with migraine [2],decreases over time
same,"change in MIDAS migraine disability, headache days and headache pain/severity over time",patients with migraine [2]; listed as lasmiditan,"large, clinically meaningful improvement; also recorded: a decrease over the 12-month treatment period"
same,inhibition of dural plasma protein extravasation vs vehicle,"[3]; 0.1 mg/kg po, 1 hour post-dose",non-efficacious
same,inhibition of dural plasma protein extravasation vs vehicle,"[3]; single 10 mg/kg po, 24 hours post-dose",equally efficacious
same,inhibition of dural plasma protein extravasation vs vehicle,"[3]; single 10 mg/kg po, 48 hours post-dose",not at 48 hours
